Columns and labels:
Estrogen receptor beta [1] = biological target: T1, Estrogen receptor beta (Homo sapiens, UniProt Q92731)
Description: Binding affinity to ERbeta in presence of serum

Estrogen receptor beta [2] = biological target: T1, Estrogen receptor beta; remark: listed apart in the source
Description: Binding affinity to ERbeta in HTRF coactivator recruitment assay

Estrogen receptor beta [3] = biological target: T1, Estrogen receptor beta; remark: listed apart in the source
Description: Binding affinity to ERbeta

Estrogen receptor = biological target: T2, Estrogen receptor (Homo sapiens, UniProt P03372)
T2 sequence (P03372 whole entry): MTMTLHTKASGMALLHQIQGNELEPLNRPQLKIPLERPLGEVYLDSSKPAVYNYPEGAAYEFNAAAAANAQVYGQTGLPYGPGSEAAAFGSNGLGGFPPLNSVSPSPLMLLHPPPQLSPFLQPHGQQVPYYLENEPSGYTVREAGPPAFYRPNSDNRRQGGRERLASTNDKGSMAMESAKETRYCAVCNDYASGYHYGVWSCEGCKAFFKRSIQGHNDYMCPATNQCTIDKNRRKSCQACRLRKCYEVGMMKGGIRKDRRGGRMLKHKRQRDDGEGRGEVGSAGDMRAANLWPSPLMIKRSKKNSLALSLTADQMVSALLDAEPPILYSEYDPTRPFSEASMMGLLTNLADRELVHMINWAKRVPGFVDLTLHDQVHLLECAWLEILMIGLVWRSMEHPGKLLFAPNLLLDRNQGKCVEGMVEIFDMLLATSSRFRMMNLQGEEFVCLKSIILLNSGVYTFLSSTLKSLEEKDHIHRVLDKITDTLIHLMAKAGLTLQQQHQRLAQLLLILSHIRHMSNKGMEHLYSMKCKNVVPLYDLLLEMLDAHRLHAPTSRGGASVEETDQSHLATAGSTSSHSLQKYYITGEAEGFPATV
Description: Binding affinity to ERalpha

T1 sequence (Q92731 whole entry): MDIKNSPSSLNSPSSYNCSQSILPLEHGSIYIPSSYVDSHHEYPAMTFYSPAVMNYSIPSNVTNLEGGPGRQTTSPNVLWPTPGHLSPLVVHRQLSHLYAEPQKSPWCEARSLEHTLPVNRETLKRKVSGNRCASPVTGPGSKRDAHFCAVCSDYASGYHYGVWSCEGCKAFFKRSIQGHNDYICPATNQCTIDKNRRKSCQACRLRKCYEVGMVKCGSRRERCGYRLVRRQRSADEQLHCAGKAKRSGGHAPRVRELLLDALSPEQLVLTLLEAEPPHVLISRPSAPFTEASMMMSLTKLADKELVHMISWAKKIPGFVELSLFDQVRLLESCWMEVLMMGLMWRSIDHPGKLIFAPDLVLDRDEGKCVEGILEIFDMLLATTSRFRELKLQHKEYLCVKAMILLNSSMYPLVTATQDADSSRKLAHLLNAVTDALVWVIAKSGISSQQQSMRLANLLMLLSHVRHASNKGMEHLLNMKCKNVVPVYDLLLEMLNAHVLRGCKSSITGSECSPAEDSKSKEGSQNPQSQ

| SMILES | IC50 (Estrogen receptor beta [1]) [nM] | EC50 (Estrogen receptor beta [2]) [nM] | IC50 (Estrogen receptor beta [3]) [nM] | IC50 (Estrogen receptor) [nM] |
| --- | --- | --- | --- | --- |
| C=Cc1cc(C)cc2c(=O)oc3c(C)c(O)ccc3c12 | 1280 | > 1000 | 10 | 10000 |
| COc1c(C)cc2c(=O)oc3c(C)c(O)ccc3c2c1C | – | – | 16 | 4160 |
| Cc1c(O)ccc2c1OC(C)(C)c1c-2ccc(O)c1C | – | – | 45 | 468 |
| Cc1c(O)ccc2c1OC(C)c1c-2ccc(O)c1C (stereo not drawn) | – | – | 8 | 335 |
| Cc1c(O)c(Cl)cc2c1c(=O)oc1c(Cl)c(O)ccc12 | – | – | 19 | 524 |
| Cc1c(O)ccc2c1oc(=O)c1cc(Br)ccc12 | – | – | 128 | > 10000 |
| COc1cc2c(=O)oc3c(C)c(O)ccc3c2cc1Br | – | – | 77 | 10000 |
| C=CCc1cc(C)cc2c(=O)oc3c(C)c(O)ccc3c12 | – | – | 35 | 10000 |
| C=Cc1cc(O)cc2c1-c1ccc(O)c(C)c1CC2 [EFFUSOL] | – | – | 12 | – |
| CCc1c(O)ccc2c1c(=O)oc1c(F)c(O)ccc12 | – | – | 21 | 228 |
| Cc1cc(C)c2c(c1)c(=O)oc1cc(O)ccc12 | – | – | 90 | 585 |
| Cc1c(O)ccc2c1oc(=O)c1c(O)c(O)ccc12 | – | – | 82 | 1280 |
| C/C=C/c1cccc2c(=O)oc3c(C)c(O)ccc3c12 | – | – | 116 | 3030 |
| C=Cc1cccc2c(=O)oc3c(C)c(O)ccc3c12 | – | – | 208 | > 10000 |
| CC/C=C/c1cc2c(cc1Br)c(=O)oc1c(C)c(O)ccc12 | – | – | 26 | 1090 |
| Cc1c(O)ccc2c1oc(=O)c1cc(O)cc(C)c12 | – | – | 54 | 583 |

| SMILES | IC50 (Estrogen receptor beta [1]) [nM] | EC50 (Estrogen receptor beta [2]) [nM] | IC50 (Estrogen receptor beta [3]) [nM] | IC50 (Estrogen receptor) [nM] |
| --- | --- | --- | --- | --- |
| Cc1c(O)ccc2c1oc(=O)c1c(C)c(N)ccc12 | – | – | 279 | 14300 |
| Cc1cc(C)c2c(c1)c(=O)oc1c(C)c(O)ccc12 | – | – | 20 | 3710 |
| Cc1cc(O)cc2c1-c1ccc(O)c(C)c1OC2C (stereo not drawn) | – | – | 24 | 1210 |
| CCC1Oc2c(ccc(O)c2C)-c2ccc(O)c(C)c21 (stereo not drawn) | – | – | 3.2 | 101 |
| C=CCC1(C)Oc2c(ccc(O)c2C)-c2c(C)cc(O)c(C)c21 (stereo not drawn) | – | – | 13 | 157 |
| C=Cc1cc(OC)cc2c(=O)oc3c(C)c(O)ccc3c12 | – | – | 53 | > 10000 |
| CCc1c(O)ccc2c1c(=O)oc1c(C)c(O)ccc12 | – | – | 14 | 484 |
| CCc1cc(O)cc2c(=O)oc3c(C)c(O)ccc3c12 | – | – | 91 | 1780 |
| Cc1cc(Br)c2c(c1)c(=O)oc1c(C)c(O)ccc12 | – | – | 44 | 3120 |
| Cc1c(O)ccc2c1oc(=O)c1c(Br)cc(Br)cc12 | – | – | 24 | 597 |
| Cc1cc(O)c(C)c2c1-c1ccc(O)c(C)c1OC2C (stereo not drawn) | – | – | 9 | 237 |
| CCc1cc(OC)cc2c(=O)oc3c(C)c(O)ccc3c12 | – | – | 69 | 9830 |
| Cc1c(O)ccc2c1oc(=O)c1c(C)c(O)cc(C)c12 | – | – | 5.7 | 716 |
| Cc1c(O)ccc2c1c(=O)oc1c(Br)c(O)ccc12 | – | – | 67 | 1920 |
| Cc1cc(O)cc2c1-c1ccc(O)c(C)c1OC2CC(C)C (stereo not drawn) | – | – | 49 | 627 |
| CCc1c(O)ccc2c1oc(=O)c1c(C)c(O)ccc12 | – | – | 7.8 | 229 |

The remaining compounds from weak to strong by IC50 (Estrogen receptor beta [3]), led by results:

| IC50 (Estrogen receptor beta [1]) [nM] | EC50 (Estrogen receptor beta [2]) [nM] | IC50 (Estrogen receptor beta [3]) [nM] | IC50 (Estrogen receptor) [nM] | SMILES |
| --- | --- | --- | --- | --- |
| – | – | 2340 | 5460 | CCc1c(O)ccc2c1oc(=O)c1cc(Br)ccc12 |
| – | – | 1450 | > 10000 | Cc1c(O)ccc2c1oc(=O)c1ccccc12 |
| – | – | 957 | > 10000 | Cc1c(O)ccc2c1oc(=O)c1c(C)c(NC=O)ccc12 |
| – | – | 433 | 4260 | Cc1c(O)ccc2c1oc(=O)c1c(C)c(NS(C)(=O)=O)ccc12 |
| – | – | 326 | > 10000 | Cc1c(O)ccc2c1oc(=O)c1cccc(C)c12 |
| – | – | 310 | 4590 | C=Cc1ccc2c(c1)c(=O)oc1c(C)c(O)ccc12 |
| – | – | 308 | > 10000 | COc1ccc2c(c1)c(=O)oc1c(C)c(O)ccc12 |
| – | – | 215 | 6850 | Cc1cc2c(cc1Br)c(=O)oc1c(C)c(O)ccc12 |
| – | – | 180 | 11600 | O=c1oc2c(Cl)c(O)ccc2c2cc(F)c(O)c(Cl)c12 |
| – | – | 117 | 1000 | COc1ccc2c(c1C)c(=O)oc1c(C)c(O)ccc12 |
| – | – | 93 | > 10000 | Cc1c(O)ccc2c1oc(=O)c1c(C)cccc12 |
| – | – | 88 | 4610 | Cc1c(O)ccc2c1COc1c-2ccc(O)c1C |
| – | – | 80 | 3070 | Cc1c(O)ccc2c1oc(=O)c1c(C)ccc(C)c12 |
| – | – | 74 | 1030 | Cc1cc(O)cc2c1-c1ccc(O)c(C)c1OC2 |
| – | – | 67 | 1860 | Cc1c(O)ccc2c1c(=O)oc1cc(O)cc(C)c12 |
| – | – | 57 | > 10000 | Cc1cc2c(=O)oc3c(C)c(O)ccc3c2c(C)c1Br |
| – | – | 54 | 1580 | Cc1c(O)ccc2c1c(=O)oc1c(F)c(O)ccc12 |
| – | – | 49 | 1170 | Cc1c(O)ccc2c1c(=O)oc1cc(O)ccc12 |
| – | – | 46 | 654 | Cc1c(O)ccc2c1oc(=O)c1cc(O)ccc12 |
| – | – | 27 | 488 | Cc1c(O)cc(C)c2c1oc(=O)c1cc(O)ccc12 |
| – | – | 22 | 597 | Cc1c(O)c(Cl)c(C)c2c1c(=O)oc1c(Cl)c(O)ccc12 |
| – | – | 22 | 626 | CCCC1Oc2c(ccc(O)c2C)-c2c(C)cc(O)cc21 (stereo not drawn) |
| – | – | 18 | 2520 | Cc1cc(O)c(Cl)c2c(=O)oc3c(Cl)c(O)ccc3c12 |
| – | – | 8 | 435 | CCC1Oc2c(ccc(O)c2C)-c2c(C)cc(O)cc21 (stereo not drawn) |
| – | – | 6.7 | 785 | Cc1c(O)cc(C)c2c1oc(=O)c1c(C)c(O)ccc12 |
| 78 | 7.2 | 4.1 | 159 | Cc1c(O)ccc2c1oc(=O)c1c(C)c(O)ccc12 |
| – | – | 2.3 | 129 | CCC1Oc2c(ccc(O)c2C)-c2c(C)cc(O)c(C)c21 (stereo not drawn) |
| – | – | 1.15 | 225 | COc1c(C)c(Br)c2c(=O)oc3c(C)c(O)ccc3c2c1C |

— ChEMBL document CHEMBL1139663, “6H-Benzo[c]chromen-6-one derivatives as selective ERbeta agonists” (Bioorg Med Chem Lett, 2006)
